Test results as given in ChEMBL document CHEMBL4622974, “Leveraging an Open Science Drug Discovery Model to Develop CNS-Penetrant ALK2 Inhibitors for the Treatment of Diffuse Intrinsic Pontine Glioma” (J Med Chem, 2020).
pIC50: −log10 of the molar value.

What was measured:
[1] = Half life in CD1 mouse liver microsomes at 1 uM incubated for 60 mins by LC/MS analysis; assay type: ADME, Microsome
[2] = Toxicity in CB17 SCID mouse assessed as induction of adverse effect at 10 mg/kg, po; assay type: organism-based; settings: in vivo
Activin receptor type-1B = biological target: T1, Activin receptor type-1B (Homo sapiens, UniProt P36896); assay: Inhibition of human ALK4 using casein as substrate in presence of [gamma-33P]-ATP by radiometric hotspot assay; assay type: ADME
T1 sequence (P36896 whole entry): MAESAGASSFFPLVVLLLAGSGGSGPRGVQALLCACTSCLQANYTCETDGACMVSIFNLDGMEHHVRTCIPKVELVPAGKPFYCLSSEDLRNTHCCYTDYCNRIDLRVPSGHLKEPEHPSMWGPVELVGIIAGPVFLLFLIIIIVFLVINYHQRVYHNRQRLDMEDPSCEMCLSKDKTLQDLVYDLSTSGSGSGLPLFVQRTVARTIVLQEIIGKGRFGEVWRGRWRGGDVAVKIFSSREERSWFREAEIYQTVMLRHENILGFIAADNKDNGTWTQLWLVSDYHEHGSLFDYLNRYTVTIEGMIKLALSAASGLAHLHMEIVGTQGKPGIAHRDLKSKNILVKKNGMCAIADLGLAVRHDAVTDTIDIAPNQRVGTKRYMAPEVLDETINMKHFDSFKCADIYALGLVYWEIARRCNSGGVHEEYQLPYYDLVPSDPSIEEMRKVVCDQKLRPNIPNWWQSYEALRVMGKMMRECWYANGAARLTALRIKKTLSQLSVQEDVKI

[3] = biological target: Voltage-gated inwardly rectifying potassium channel KCNH2 (Homo sapiens, UniProt Q12809); assay: Inhibition of human ERG expressed in HEK293 cells after 5 mins by IonWorks barracuda patch clamp method; assay type: cell-based
[4] = Ratio of drug level in brain to plasma in CB17 SCID mouse at 10 mg/kg, po measured at 4 h; assay type: ADME, organism-based; settings: brain and plasma, read-out: BPR
[5] = Stability in CD1 mouse liver microsomes assessed as compound remaining at 1 uM incubated for 60 mins by LC/MS analysis; assay type: ADME, Microsome; settings: read-out: Stability
[6] = Apparent permeability across apical to basolateral side in human Caco2 cells at 5 uM after 120 mins by LC-MS/MS analysis; settings: Caco-2
[7] = Oral bioavailability in CB17 SCID mouse at 10 mg/kg after 0.25 to 24 hrs by LC/MS/MS method; assay type: ADME, organism-based; settings: in vivo
Activin receptor type-1 [8] = biological target: T2, Activin receptor type-1 (Homo sapiens, UniProt Q04771); assay: Competitive displacement of PBI-6908 from nanoluciferase-fused ALK2 (unknown origin) expressed in HEK293 cells incubated for 2 hrs by NanoBRET NanoGlo substrate based NanoBRET assay; assay type: cell-based
T2 sequence (Q04771 whole entry): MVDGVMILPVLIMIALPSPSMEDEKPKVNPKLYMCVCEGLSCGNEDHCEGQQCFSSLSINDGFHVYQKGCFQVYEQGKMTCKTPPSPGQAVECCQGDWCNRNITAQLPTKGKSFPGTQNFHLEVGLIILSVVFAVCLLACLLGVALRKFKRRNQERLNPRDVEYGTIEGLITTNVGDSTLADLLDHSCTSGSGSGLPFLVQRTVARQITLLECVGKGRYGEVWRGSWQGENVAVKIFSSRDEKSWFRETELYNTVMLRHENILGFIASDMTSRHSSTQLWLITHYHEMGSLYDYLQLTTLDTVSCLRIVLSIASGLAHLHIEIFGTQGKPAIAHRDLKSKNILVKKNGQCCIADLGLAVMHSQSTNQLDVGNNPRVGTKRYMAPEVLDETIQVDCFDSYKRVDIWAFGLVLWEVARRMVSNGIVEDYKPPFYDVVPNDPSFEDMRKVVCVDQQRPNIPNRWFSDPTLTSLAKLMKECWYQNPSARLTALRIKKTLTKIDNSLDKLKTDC

[9] = Cmax in CB17 SCID mouse at 10 mg/kg, po after 0.25 to 24 hrs by LC/MS/MS method; assay type: ADME, organism-based; parameters: dose 10 mg/kg, route oral; settings: in vivo
[10] = Half life in human liver microsomes at 1 uM incubated for 60 mins by LC/MS analysis; assay type: ADME, Microsome
[11] = Stability in human liver microsomes assessed as compound remaining at 1 uM incubated for 60 mins by LC/MS analysis; assay type: ADME, Microsome; settings: read-out: Stability
TGF-beta receptor type-1 [12] = biological target: T3, TGF-beta receptor type-1 (Homo sapiens, UniProt P36897); assay: Inhibition of recombinant human ALK5 expressed in HEK293 cells transfected with CAGA-luciferase and Renilla luciferase reporter after 24 hrs by dual luciferase reporter assay; assay type: cell-based
T3 sequence (P36897 whole entry): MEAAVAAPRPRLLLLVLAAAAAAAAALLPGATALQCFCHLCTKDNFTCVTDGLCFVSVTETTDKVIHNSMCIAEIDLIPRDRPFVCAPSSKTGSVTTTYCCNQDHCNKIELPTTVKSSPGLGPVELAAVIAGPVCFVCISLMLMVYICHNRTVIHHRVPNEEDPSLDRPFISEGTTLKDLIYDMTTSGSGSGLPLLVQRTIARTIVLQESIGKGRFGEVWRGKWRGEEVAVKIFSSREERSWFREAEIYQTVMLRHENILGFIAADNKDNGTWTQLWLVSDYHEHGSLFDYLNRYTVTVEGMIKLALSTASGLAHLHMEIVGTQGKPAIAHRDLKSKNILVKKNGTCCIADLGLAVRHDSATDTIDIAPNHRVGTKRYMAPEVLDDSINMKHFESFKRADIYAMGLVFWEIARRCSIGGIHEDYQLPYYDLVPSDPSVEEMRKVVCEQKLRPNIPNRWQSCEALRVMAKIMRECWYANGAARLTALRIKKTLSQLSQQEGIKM

[13] = Half life in CB17 SCID mouse at 10 mg/kg, po after 0.25 to 24 hrs by LC/MS/MS method; assay type: ADME, organism-based; settings: in vivo
[14] = AUCinfinity in CB17 SCID mouse at 10 mg/kg, po after 0.25 to 24 hrs by LC/MS/MS method; assay type: ADME, organism-based; parameters: dose 10 mg/kg, time infinity, route oral; settings: in vivo
[15] = Efflux ratio of apparent permeability across basolateral to apical over apical to basolateral side in human Caco2 cells at 5 uM incubated for 2 hrs by LC/MS/MS analysis; settings: Caco-2
TGF-beta receptor type-1 [16] = biological target: T3, TGF-beta receptor type-1; assay: Inhibition of human ALK5 using casein as substrate in presence of [gamma-33P]-ATP by radiometric hotspot assay; assay type: ADME
[17] = Apparent permeability across basolateral to apical side in human Caco2 cells at 5 uM after 120 mins by LC-MS/MS analysis; assay type: ADME, cell-based; settings: Caco-2
[18] = Clearance in CB17 SCID mouse at 2 mg/kg, iv after 0.25 to 24 hrs by LC/MS/MS method; assay type: ADME, organism-based; settings: in vivo
[19] = Toxicity in CB17 SCID mouse assessed as induction of adverse effect at 2 mg/kg, iv; assay type: organism-based; settings: in vivo
[20] = Volume of distribution at steady state in CB17 SCID mouse at 2 mg/kg, iv after 0.25 to 24 hrs by LC/MS/MS method; assay type: ADME, organism-based; settings: in vivo, read-out: Vdss
Activin receptor type-1 [21] = biological target: T2, Activin receptor type-1; assay: Inhibition of human ALK2 using casein as substrate in presence of [gamma-33P]-ATP by radiometric hotspot assay
[22] = Plasma concentration in NOD/SCID mouse at 25 mg/kg, po measured after 0.5 to 6 hrs; assay type: ADME, organism-based; settings: in vivo
[23] = Selectivity ratio of IC50 for human ALK4 to IC50 for human ALK2; assay type: ADME
[24] = Drug uptake in NOD/SCID mouse at 25 mg/kg, po measured after 0.5 to 6 hrs; assay type: ADME, organism-based; settings: in vivo
[25] = Drug level in NOD/SCID mouse brain at 25 mg/kg, po measured at 2 hr post dose on day 14 by LC-MS/MS analysis; assay type: ADME, organism-based; settings: read-out: Drug uptake
[26] = Ratio of drug level in brain to plasma in NOD/SCID mouse at 25 mg/kg, po measured at 2 hr post dose on day 14 by LC-MS/MS analysis; assay type: ADME, organism-based; settings: read-out: BPR
[27] = Half life in BALB/c mouse at 5 mg/kg, po by LC-MS/MS analysis; assay type: ADME, organism-based; settings: in vivo
[28] = Oral bioavailability in BALB/c mouse at 5 mg/kg by LC-MS/MS analysis; assay type: ADME, organism-based; settings: in vivo

Sequence of Voltage-gated inwardly rectifying potassium channel KCNH2 (Q12809 whole entry): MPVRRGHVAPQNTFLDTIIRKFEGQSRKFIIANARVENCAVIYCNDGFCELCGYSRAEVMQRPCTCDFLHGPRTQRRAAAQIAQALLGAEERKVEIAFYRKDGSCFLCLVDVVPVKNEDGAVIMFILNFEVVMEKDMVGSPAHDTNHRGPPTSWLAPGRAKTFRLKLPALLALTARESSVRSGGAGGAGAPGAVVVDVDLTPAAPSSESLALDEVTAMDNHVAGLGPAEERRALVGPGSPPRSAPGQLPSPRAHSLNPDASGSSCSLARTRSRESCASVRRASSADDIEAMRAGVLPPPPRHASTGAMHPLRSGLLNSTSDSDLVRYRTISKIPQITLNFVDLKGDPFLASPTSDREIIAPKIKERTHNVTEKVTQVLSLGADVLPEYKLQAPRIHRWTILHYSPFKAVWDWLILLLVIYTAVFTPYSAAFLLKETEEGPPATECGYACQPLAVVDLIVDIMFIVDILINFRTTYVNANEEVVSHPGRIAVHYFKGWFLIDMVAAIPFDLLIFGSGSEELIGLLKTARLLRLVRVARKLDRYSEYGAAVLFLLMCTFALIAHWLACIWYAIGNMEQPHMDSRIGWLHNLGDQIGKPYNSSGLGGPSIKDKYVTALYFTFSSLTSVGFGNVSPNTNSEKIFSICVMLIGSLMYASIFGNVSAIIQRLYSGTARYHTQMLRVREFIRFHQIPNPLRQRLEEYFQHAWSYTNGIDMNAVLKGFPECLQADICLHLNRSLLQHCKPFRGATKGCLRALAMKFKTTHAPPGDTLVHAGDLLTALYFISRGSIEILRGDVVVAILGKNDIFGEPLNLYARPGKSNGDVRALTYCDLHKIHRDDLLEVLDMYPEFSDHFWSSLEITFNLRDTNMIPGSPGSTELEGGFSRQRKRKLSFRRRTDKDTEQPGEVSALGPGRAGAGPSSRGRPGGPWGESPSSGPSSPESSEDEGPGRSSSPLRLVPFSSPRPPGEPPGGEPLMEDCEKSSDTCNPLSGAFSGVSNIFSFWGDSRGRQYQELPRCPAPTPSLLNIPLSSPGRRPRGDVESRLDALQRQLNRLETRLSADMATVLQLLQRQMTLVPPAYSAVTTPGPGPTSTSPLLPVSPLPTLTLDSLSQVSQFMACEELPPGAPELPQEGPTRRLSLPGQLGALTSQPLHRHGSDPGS

Compound	half-life at 1 µM [1] [h]	Activity [2]	pIC50 (Activin receptor type-1B)	pIC50 [3]	remaining at 1 h, 1 µM [5] [%]	Papp A→B at 2 h, 5 µM [6] [×10⁻⁶ cm/s]	bioavailability [7] [%]	pIC50 (Activin receptor type-1 [8])	Cmax [9] [µM]	half-life at 1 µM [10] [h]	remaining at 1 h, 1 µM [11] [%]	pIC50 (TGF-beta receptor type-1 [12])	half-life [13] [h]	AUC(0-inf) [14] [µM·h]	efflux ratio at 2 h, 5 µM [15]	pIC50 (TGF-beta receptor type-1 [16])	Papp B→A at 2 h, 5 µM [17] [×10⁻⁶ cm/s]	clearance [18] [mL/min/kg]	Activity [19]	Vd [20] [L/kg]	other results
COc1cc(-c2cncc(-c3ccc(C4=CCNCC4)cc3)c2C)cc(OC)c1OC	> 1	Non-Toxic	< 5.70	5.47	73.9	2.9	79	7.33	6.62	> 1	68	5.12	6.02	82.5	1.3	< 5.30	3.9	3.84	Non-Toxic	1.66	Kp at 4 h [4]: 0.43; pIC50 (Activin receptor type-1 [21]): 8.30
COc1cc(-c2cncc(-c3ccc(N4CCNCC4)cc3)c2C)cc(OC)c1OC																					concentration [22]: 9.11 µM
COc1cc(-c2cncc(-c3ccc(N4CCN(S(C)(=O)=O)CC4)cc3)c2C)cc(OC)c1OC	> 1	Non-Toxic	5.95	< 4.30	100	34.5	7	7.23	1.43	> 1	83.6	5.19	0.8	2.97	1	5.70	33.8	7.9	Non-Toxic	0.48	Ratio IC50 [23]: 39; pIC50 (Activin receptor type-1 [21]): 7.54
COc1cc(-c2cncc(-c3ccc(OC4CCNCC4)cc3)c2C)cc(OC)c1OC	> 1	Non-Toxic	5.87	5.09	39.3	4.1	96	7.51	4.71	> 1	62.1	5.72	7.7	65.8	2.3	5.54	9.4	6	Non-Toxic	2.23	Ratio IC50 [23]: 227; pIC50 (Activin receptor type-1 [21]): 8.22
COc1cc(-c2cncc(-c3ccc(N4CCNCC4)cc3)c2C)cc(OC)c1OC.CS(=O)(=O)O																					Drug uptake [24]: Active
COc1cc(-c2cc(-c3ccc(N4CCNCC4)cc3)cnc2C)cc(OC)c1OC																					concentration at 2 h [25]: 10.9 µM; Kp at 2 h [26]: 0.8; half-life [27]: 3.91 h; bioavailability [28]: 75%
